Experiment: Kinetic constant for the transformation of vitamin D to Previtamin D (kl / k-1)

Row | SMILES | Keq
1 | C=C1/C(=C\C=C2/CCC[C@]3(C)C([C@H](C)C[C@H](O)CC(O)(C(F)(F)F)C(F)(F)F)CC[C@@H]23)C[C@@H](O)C[C@@H]1O (stereo not given in full) | 5.46
2 | C=C1CC[C@H](O)C/C1=C/C=C1\CCC[C@]2(C)[C@@H]([C@H](C)CCCC(C)C)CC[C@@H]12 | 3.71
3 | C=C1/C(=C\C=C2/CCC[C@]3(C)[C@@H]([C@H](C)CCCC(C)C)CC[C@@H]23)C[C@@H](O)C[C@@H]1O | 5.18
4 | C=C1CCCC/C1=C/C=C1\CCC[C@]2(C)C([C@H](C)CCCC(C)C)CC[C@@H]12 (stereo not given in full) | 3.06
5 | C=C1/C(=C\C=C2/CCC[C@]3(C)C([C@H](C)CCCC(O)(C(F)(F)F)C(F)(F)F)CC[C@@H]23)C[C@@H](O)C[C@@H]1O (stereo not given in full) | 5.1

Reference: ChEMBL document CHEMBL1151019, “Kinetics of thermal [1,7a]-sigmatropic shift of hexafluoro vitamin D3 and vitamin D3 derivatives. Evaluation of conformations of the A ring affected by 1-OH and 3-OH groups” (Bioorg Med Chem Lett, 1996)
